In article PMC10376059, “New NADPH Oxidase 2 Inhibitors Display Potent Activity against Oxidative Stress by Targeting p22^phox-p47^phox Interactions” (Antioxidants, 2023):

How the values were obtained:
[1] = system: HL-60 cells; assay: MTT cytotoxicity assay; format: cell-based, human; conditions: 72 h, 0.01 µM to 100 µM, MTT
Description: (§1) To verify the cytotoxicity of the acrylonitrile derivatives, the MTT reduction method was performed. Briefly, HL-60 cells were seeded in a flat-bottomed 96-well plate at a density of 10,000 cells per well. […] In a second series of experiments, cells were incubated under the same conditions but for 72 h. Etoposide was used as a positive control. Ten μL of MTT was added at a final concentration of 0.5 mg/mL, incubated at 37 °C for 4 h, and then solubilized with 10% SDS in 0.1 mM HCl and incubated overnight at 37 °C. Finally, a blue-colored compound (formazan) formation was measured at 570 nm in a multiplate reader (StatFax 4200, Awareness Technology, Inc., Palm City, FL, USA). The viability percentage was obtained as follows: Viability % = [treated cells DO × 100]/[DO cells control].

[2] = target: T1, NOX2 (Homo sapiens, UniProt P14598); assay: NADPH oxidase (NOX2) inhibition, DCF fluorescence in PMA-activated neutrophil-differentiated HL-60 cells; format: cell-based; conditions: for IC50: neutrophil-differentiated HL-60 cells, PMA 0.8 µM, DCF fluorescence, 0.05 to 50 µM
T1 construct: HL-60 cells expressed the components of NOX2, including gp91, p22^phox, p47^phox, and p67^phox; endogenous in cells; whole cells in A1, membrane preparations in A3 and A4
T1 sequence (P14598 1-390): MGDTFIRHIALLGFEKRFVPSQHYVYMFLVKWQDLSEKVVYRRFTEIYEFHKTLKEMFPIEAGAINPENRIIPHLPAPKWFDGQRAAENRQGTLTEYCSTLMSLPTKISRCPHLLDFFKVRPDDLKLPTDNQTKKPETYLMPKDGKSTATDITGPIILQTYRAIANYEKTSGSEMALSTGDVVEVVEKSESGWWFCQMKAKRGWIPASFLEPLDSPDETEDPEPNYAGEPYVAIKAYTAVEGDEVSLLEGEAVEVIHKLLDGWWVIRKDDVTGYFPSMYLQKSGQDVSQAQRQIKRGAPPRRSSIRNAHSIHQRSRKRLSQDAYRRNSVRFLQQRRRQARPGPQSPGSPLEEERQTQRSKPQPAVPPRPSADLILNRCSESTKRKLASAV
Description: The differentiation of HL-60 cells to neutrophils was performed after reaching a concentration of between 2 × 10^6 and 5 × 10^6 cells/mL in the differentiation medium: RPMI 1640 medium; 10% FBS; 100 IU/mL of penicillin/streptomycin; and 1.3% DMSO for 7 days, replenishing the differentiation medium every 2 days.
The 2′,7′-dichlorofluorescein (DCF) fluorescence analysis was used to determine NADPH oxidase activity in neutrophil-differentiated HL-60 cells. The method, based on a fluorimetric assay, was adapted from Boly et al.. Briefly, 1 × 10^6 neutrophil-differentiated HL-60 cells/mL were incubated for 45 min. at 37 °C in darkness with DCF-DA (1 mg/mL). The cell suspension was then transferred to a 15 mL conical tube and centrifuged at 330× g × 10 min at 37 °C. After the supernatant was removed, the cells were re-suspended in Hanks balanced saline buffer (HBSS, Sigma-Aldrich, St. Louis, MO, USA) and transferred to dark 96-well plates with a flat glass bottom (Thermo Scientific Nunc 96 microwell® black, Optical Botton # 1.5 Cover Glass Base, Thermo Fisher Scientific). Then, 200 μL of cell suspension per well were incubated at 37 °C for 30 min with the indole heteroaryl-acrylonitriles at increasing concentrations (0.05 to 50 μM). […] Finally, PMA (0.8 μM) was added to each well for 10 min. to generate the activation of NOX2. The generation of the DCF fluorescence product was monitored in an automatic microplate reader (FLx800, BioTek Instruments, Winooski, VT, USA) at 1-min intervals at 37 °C for 1 h, using an excitation wavelength of 485 nm and an emission wavelength of 555 nm. The ability to inhibit ROS production by activated neutrophil-differentiated HL-60 cells was compared against the different controls. A control was performed with cells activated by PMA in the presence of DMSO and established as having 100% of the ROS-induced fluorescence. Inhibition control was performed in the presence of VAS2870 (20 µM) and activated by PMA. Another control (NA, not activated) was done with cells in the absence of PMA and the indole heteroaryl-acrylonitriles.
All the experiments were performed in triplicate, using three different cell preparations, and the data were reported as mean ± s.e.m. For the determination of the IC50 of the indole heteroaryl-acrylonitriles, concentration-response curves (0.05 to 50 μM) were constructed. IC50 values were given as the mean ± standard deviation for at least three independent assays. The data were analyzed using one- and two-way ANOVA. A value of p < 0.05 was considered statistically significant. Statistical analyses were performed using the program GraphPad Prism® version 6.00, San Diego, CA, USA.

[3] = MTT cytotoxicity assay; format: cell-based, human; conditions: human; HL-60 cells, 24 h, 10 mM, MTT; read-out: cell viability
Description: as §1

[4] = DPPH radical scavenging activity; format: physicochemical
Description: The newly synthesized compounds were evaluated for 2,2-diphenyl-1-picrylhydrazyl […] free radical scavenging activity. The reduction and stabilization of DPPH by antioxidant compounds lead to discoloration, resulting in a decrease in absorbance at 517 nm, which was expressed as a percentage of the radical solution at a given concentration of discoloration. The heteroarylacrylonitrile derivatives were re-suspended in a minimum of DMSO at a final concentration of 5 mg/mL (stock solution). From these, they were diluted to concentrations of 1000, 500, and 100 μg/mL. These solutions were mixed with a methanol solution of DPPH (20 μg/mL) for 5 min. Each compound was evaluated in triplicate; absorbance at 517 nm in a UNICAM UV/visible spectrophotometer Helios-α (Thermo Electron Corporation, Waltham, MA USA) was measured by subtracting the solvent absorbance and comparing the resulting value with that of a blank sample. The percentage of discoloration was established according to the following formula: % Radical removal or discoloration = (1 − (AM − ABM)/AC) × 100, where AM is the absorbance of the sample compound, ABM is the absorbance of the sample blank, and AC is the absorbance of the control. The degree of discoloration indicates the efficacy of the compounds studied as free radical scavengers; therefore, a percentage of discoloration of 100 indicates the maximum radical scavenging capacity and a value close to 0 indicates a zero radical scavenging capacity. Quercetin was used as a reference compound in a concentration range of 1.25 to 7.5 μg/mL.

Structure (SMILES) | IC50 [2] | also measured
N#C/C(=C\c1ccc(-c2ccccc2)cc1)C(=O)c1c[nH]c2ccccc12 [Compound C3] |  | cytotoxicity (in words) [1]: non-cytotoxic
Cc1nn(-c2ccccc2)c(Cl)c1/C=C(\C#N)C(=O)c1c[nH]c2ccccc12 [Compound C2] | 7.2 ± 0.3 µM | 
CCc1ccc2occ(/C=C(\C#N)C(=O)c3c[nH]c4ccccc34)c(=O)c2c1 [Compound C11] | 19.9 ± 0.2 µM | 
N#C/C(=C\c1coc2ccccc2c1=O)C(=O)c1c[nH]c2ccccc12 [Compound C10] | 9.4 ± 0.3 µM | viability at 24 h, 10 mM [3]: 60%
N#C/C(=C\c1cc(-c2ccc(F)cc2)on1)C(=O)c1c[nH]c2ccccc12 [Compound C5] | 6.2 ± 0.4 µM | 
N#C/C(=C\c1ccco1)C(=O)c1c[nH]c2ccccc12 [Compound C16] | 82.7 ± 0.2 µM | 
N#C/C(=C\c1cccnc1)C(=O)c1c[nH]c2ccccc12 [Compound C13] | 16.3 ± 0.2 µM | 
N#C/C(=C\c1ccc(N2CCOCC2)cc1)C(=O)c1c[nH]c2ccccc12 [Compound C4] | 7.1 ± 0.4 µM | viability at 24 h, 10 mM [3]: 60%; antioxidant capacity, DPPH discoloration (in words) [4]: showed antioxidant capacity only at very high concentrations
N#C/C(=C\c1c(N)oc2ccccc2c1=O)C(=O)c1c[nH]c2ccccc12 [Compound C12] | 21.1 ± 0.2 µM | 
N#C/C(=C\c1ccc(-c2ccc([N+](=O)[O-])cc2)o1)C(=O)c1c[nH]c2ccccc12 [Compound C7] | 68.1 ± 1.2 µM | 
CC(=O)OCc1ccc(/C=C(\C#N)C(=O)c2c[nH]c3ccccc23)o1 [Compound C17] | 19.7 ± 0.2 µM | 

The next lines start with results.

IC50 [2] | Structure (SMILES) | also measured
69.3 ± 0.2 µM | Cn1ccnc1/C=C(\C#N)C(=O)c1c[nH]c2ccccc12 [Compound C19] | 
21.5 ± 0.3 µM | N#C/C(=C\c1ccc(-c2ccc(Cl)cc2)o1)C(=O)c1c[nH]c2ccccc12 [Compound C1] | viability at 24 h, 10 mM [3]: 60%
4.7 ± 0.3 µM | Cc1ccc2occ(/C=C(\C#N)C(=O)c3c[nH]c4ccccc34)c(=O)c2c1 [Compound C9] | cytotoxicity (in words) [1]: non-cytotoxic; inhibition of NOX2-derived ROS production (in words) ([2]; PMA-activated HL-60 cells, 0.05 µM to 50 µM): exhibited concentration-dependent inhibition of NOX2; antioxidant capacity, DPPH discoloration (in words) [4]: showed antioxidant capacity only at very high concentrations
30.4 ± 0.3 µM | CC(C)(C)OC(=O)N1CCN(c2ccc(/C=C(\C#N)C(=O)c3c[nH]c4ccccc34)cc2)CC1 [Compound C15] | 
51.3 ± 0.2 µM | N#C/C(=C\c1ncc[nH]1)C(=O)c1c[nH]c2ccccc12 [Compound C18] | 
17.1 ± 0.2 µM | CC(C)c1ccc2occ(/C=C(\C#N)C(=O)c3c[nH]c4ccccc34)c(=O)c2c1 [Compound C8] | viability at 24 h, 10 mM [3]: 60%; antioxidant capacity, DPPH discoloration (in words) [4]: showed antioxidant capacity only at very high concentrations
